This is an account of results in patent US20120190564A1, “IDENTIFICATION OF PROTEIN BINDING SITES” (priority 2000, published 2012).

The experiment concerns anti-hTNF mAb 210. Briefly: Loop-loop 15-mer Matrix-scan of hTNF loop-peptides with mAb 210. The format is binding. Particulars: mAb 210 10 ug/ml. The text has this:
FIG. 11: Partial listing of peptides synthesized for loop-loop 15-mer Matrix-scan (1. +AVRSSSRTPSDKPVZ (SEQ ID NO: 3); 2. +VRSSSRTPSDKPVAZ (SEQ ID NO: 4); 3. +RSSSRTPSDKPVAHZ (SEQ ID NO: 5); 4. +SSSRTPSDKPVAHVZ (SEQ ID NO: 6); 5. +SSRTPSDKPVAHVVZ (SEQ ID NO: 7); 145. +FAESGQVYFGIIALZ (SEQ ID NO: 8)). All overlapping 15-mer loop-peptides covering the linear sequence of human tumor necrosis factor (hTNF) were synthesized, i.e., 145 hTNF loop-peptides in total. Z is a Cys-butyl. The amino terminus of all peptides contain a bromo-group (+).
FIG. 12: Configuration of the loop-loop 15-mer Matrix-scan. Schematic representation of matrix-scan with two loop segments. On the polymer surface, a mixture of cys (mmt) and cys (trt) are coupled. After 1% TFA, the cys (mmt) is deprotected. Then, in each square, one peptide is coupled via its N-terminal Bromo-group (+). Thus, peptide-1 in square-1, peptide-2 in square-2, etc., until peptide-145 in square-145. Then, the cys(trt) is deprotected with 95% TFA. Then, in each square, 145 different peptides are spotted simultaneously. Thus, peptide-1 to 145 in square-1, peptide 1-145 in square-2, etc., to peptide-1 to peptide-145 in square-145. Some extra squares were used for controls (linear epitopes).
FIG. 13: Result of the loop-loop 15-mer Matrix-scan with anti-hTNF mAb 210 (10 ug/ml). The result obtained with all 145 squares is plotted. […] On top of these and other squares spots are labeled as well (spots represent first peptide coupled next to second loop peptide). Identified squares and spots: Sq-65: +FKGQGCPSTHVLLTZ (SEQ ID NO: 9); Sq-66: +KGQGCPSTHVLLTHZ (SEQ ID NO: 10); Sq-67: +GQGCPSTHVLLTHTZ (SEQ ID NO: 11); Sq-87: +SYQTKVNLLSAIKSZ (SEQ ID NO: 12); Sq-88: +YQTKVNLLSAIKSPZ (SEQ ID NO: 13); Sq-94: +LLSAIKSPCQRETPZ (SEQ ID NO: 14); Sq-95: +LSAIKSPCQRETPEZ (SEQ ID NO: 15); Sq-127: +LEKGDRLSAEINRPZ (SEQ ID NO: 16); Sq-128: +EKGDRLSAEINRPDZ (SEQ ID NO: 17); Peptide-65: +FKGQGCPSTHVLLTZ (SEQ ID NO: 18); Peptide-70: +CPSTHVLLTHTISRZ (SEQ ID NO: 19); Peptide-72: +STHVLLTHTISRIAZ (SEQ ID NO: 20); Peptide-77: +LTHTISRIAVSYQTZ (SEQ ID NO: 21); Peptide-94: +LLSAIKSPCQRETPZ (SEQ ID NO: 22); Peptide-95: +LSAIKSPCQRETPEZ (SEQ ID NO: 23); Peptide-99: +KSPCQRETPEGAEAZ (SEQ ID NO: 24); Peptide-126: +QLEKGDRLSAEINRZ (SEQ ID NO: 25); Peptide-129: +KGDRLSAEINRPDYZ (SEQ ID NO: 26). The y-axis is in arbitrary units.
FIG. 14: Result of the loop-loop 15-mer Matrix-scan with mAb 210 (10 ug/m) with details of squares 65 and 127. Combination of loop-peptide 65 with loop-peptides 94, 95, combinations of loop-peptide 65 with 126-127, combinations of loop-peptide 127 with loop-peptides 65-77 and combinations of loop-peptide 127 with loop-peptides 94-96 are labeled. The y-axis is in arbitrary units.
The monoclonal antibody mAb-210 raised against hTNF was tested on linear and loop peptides (mAb-210 was bought from R&D Systems, MAB210, clone 1825.12, through ITK Diagnostics Uithoorn, The Netherlands). Firstly, it was tested in Pepscan on all overlapping linear 12-mers covering hTNF. […] Secondly, it was tested in Pepscan matrix-scan on double 15-mer loop-loop peptides (as described in FIGS. 3 and 4 and explained through FIGS. 11-12). Two loop-regions were labeled: peptide sequence GQGCPSTHVLLT (SEQ ID NO: 65) (squares 65 to 67) and SAIKSPCQRE (SEQ ID NO: 28) (squares 92 to 96) (FIGS. 13, 14). In addition in various squares loop peptide spots were identified corresponding to sequence GQGCPSTHVLLT (SEQ ID NO: 65) (spots 65-67); SAIKSPCQRE (SEQ ID NO: 28) (spots 92-96) and KGDRLSAEINR (SEQ ID NO: 29) (spots 126-129) (FIG. 14). These three regions, illustrated in FIG. 15 on the three-dimensional model of hTNF, are located on one side of the hTNF molecule and form one large discontinuous epitope region.

Ends that are not written are not given here. * marks the point of attachment. code + = amino-terminal bromo-group; nBu = CCCC*

For “+CPSTHVLLTHTISRZ ({code +}-CPSTHVLLTHTISRC(nBu)) [Peptide-70, 15-mer hTNF loop-peptide]”, the “labeling of spots (first peptide coupled next to second loop peptide)” value (“labeling of spots” for short) is listed as “Identified”.

Take “+EKGDRLSAEINRPDZ ({code +}-EKGDRLSAEINRPDX; not fully specified (residue 15); printed as +EKGDRLSAEINRPDZ; also: N- and C-terminal linker/cyclisation residues) [Sq-128, 15-mer hTNF loop-peptide]”: the “labeling of squares (firstly coupled loop-peptides)” value (“labeling of squares” below) is recorded as “Identified”.

In the case of “+FKGQGCPSTHVLLTZ ({code +}-FKGQGCPSTHVLLTC(nBu)) [Peptide-65, 15-mer hTNF loop-peptide]”, the “labeling of spots” value is on record as “Identified” and the “labeling of squares” value is “Identified”.

For the substance “+GQGCPSTHVLLTHTZ ({code +}-GQGCPSTHVLLTHTX; not fully specified (residue 15); printed as +GQGCPSTHVLLTHTZ; also: N- and C-terminal linker/cyclisation residues) [Sq-67, 15-mer hTNF loop-peptide]”, the “labeling of squares” value is listed as “clearly labeled”.

In the case of “+KGDRLSAEINRPDYZ ({code +}-KGDRLSAEINRPDYC(nBu)) [Peptide-129, 15-mer hTNF loop-peptide]”, the “labeling of spots” value is reported as “Identified”.

In the case of “+KGQGCPSTHVLLTHZ ({code +}-KGQGCPSTHVLLTHX; not fully specified (residue 15); printed as +KGQGCPSTHVLLTHZ; also: N- and C-terminal linker/cyclisation residues) [Sq-66, 15-mer hTNF loop-peptide]”, the “labeling of squares” value is reported as “clearly labeled”.

On to “+KSPCQRETPEGAEAZ ({code +}-KSPCQRETPEGAEAX; not fully specified (residue 15); printed as +KSPCQRETPEGAEAZ; also: N- and C-terminal linker/cyclisation residues) [Peptide-99, 15-mer hTNF loop-peptide]”, for which the “labeling of spots” value is reported as “Identified”.

Consider “+LEKGDRLSAEINRPZ ({code +}-LEKGDRLSAEINRPX; not fully specified (residue 15); printed as +LEKGDRLSAEINRPZ; also: N- and C-terminal linker/cyclisation residues) [Sq-127, 15-mer hTNF loop-peptide]”, for which the “labeling of squares” value was “Identified”.

As for “+LLSAIKSPCQRETPZ ({code +}-LLSAIKSPCQRETPC(nBu)) [Peptide-94, 15-mer hTNF loop-peptide]”, the “labeling of spots” value was “Identified” and the “labeling of squares” value is “Identified”.

Take “+LSAIKSPCQRETPEZ ({code +}-LSAIKSPCQRETPEC(nBu)) [Peptide-95, 15-mer hTNF loop-peptide]”: the “labeling of spots” value was “Identified” and the “labeling of squares” value is on record as “Identified”.

As to “+LTHTISRIAVSYQTZ ({code +}-LTHTISRIAVSYQTX; not fully specified (residue 15); printed as +LTHTISRIAVSYQTZ; also: N- and C-terminal linker/cyclisation residues) [Peptide-77, 15-mer hTNF loop-peptide]”, the “labeling of spots” value is “Identified”.

On to “+QLEKGDRLSAEINRZ ({code +}-QLEKGDRLSAEINRC(nBu)) [Peptide-126, 15-mer hTNF loop-peptide]”, for which the “labeling of spots” value is listed as “Identified”.

“+STHVLLTHTISRIAZ ({code +}-STHVLLTHTISRIAC(nBu)) [Peptide-72, 15-mer hTNF loop-peptide]”: the “labeling of spots” value is recorded as “Identified”.

As to “+SYQTKVNLLSAIKSZ ({code +}-SYQTKVNLLSAIKSX; not fully specified (residue 15); printed as +SYQTKVNLLSAIKSZ; also: N- and C-terminal linker/cyclisation residues) [Sq-87, 15-mer hTNF loop-peptide]”, the “labeling of squares” value is reported as “Identified”.

As to “+YQTKVNLLSAIKSPZ ({code +}-YQTKVNLLSAIKSPX; not fully specified (residue 15); printed as +YQTKVNLLSAIKSPZ; also: N- and C-terminal linker/cyclisation residues) [Sq-88, 15-mer hTNF loop-peptide]”, the “labeling of squares” value is on record as “Identified”.

Take GQGCPSTHVLLT (Human): the “labeling of spots” value is “identified” and the “labeling of squares” value was “labeled”.

In the case of GQGCPSTHVLLTHTIS (Human), the “labeling of spots” value is listed as “identified”.

Take KGDRLSAEINR (Human): the “labeling of spots” value is on record as “identified”.

SAIKSPCQRE (Human): the “labeling of spots” value is recorded as “identified” and the “labeling of squares” value was “labeled”.
